Measurements as given in PubChem BioAssay (NCI).
Several values for one entry are separate records, joined by “and”; a condition that tells them apart may be missing. Equal values may be shown once.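 Exposure lasted 48 hours, with cells grown in 96-well plates and compounds tested at five concentrations. GI50 = concentration required for 50% inhibition of growth. TGI denotes the concentration required for complete inhibition of growth.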

Legend:
Assay in all cases: inhibition of tumour cell growth, NCI panel, 48 h
[1] = system: A498 renal
[2] = system: CCRF-CEM leukemia
[3] = system: EKVX NSCLC
[4] = system: HOP-62 NSCLC
[5] = system: MCF7 breast
[6] = system: PC-3 prostate
[7] = system: SF-539 CNS
[8] = system: SK-MEL-5 melanoma
[9] = system: SW-620 colon
[10] = system: RPMI-8226 leukemia

SMILES	GI50 [1] [µM]	TGI [1] [µM]	GI50 [2] [µM]	TGI [2]	GI50 [3] [µM]	TGI [3] [µM]	GI50 [4] [µM]	TGI [4] [µM]	GI50 [5] [µM]	TGI [5] [µM]	GI50 [6] [µM]	TGI [6] [µM]	GI50 [7] [µM]	TGI [7] [µM]	GI50 [8] [µM]	TGI [8] [µM]	GI50 [9] [µM]	TGI [9] [µM]	GI50 [10] [µM]	TGI [10]
Cn1c(COC(=O)NCCN2CCOCC2)nc2c(N3CCOCC3)nc(-c3ccccc3)nc21	1.44	2.83	0.306	2.17 µM	1.48	3.36	1.29	3.3	0.47	2.18	1.33	3	1.35	2.68	1.64	3.05	0.444	1.78	–	–
Cc1csc(Nc2nc(-c3cccc(Cl)c3)nc(C(Cl)(Cl)Cl)n2)n1	–	–	21.7	> 33.3 µM	1.25	6.89	1.27	7.99	1.46	> 33.3	1.27	7.85	2.04	11.7	> 33.3	> 33.3	2.21	> 33.3	1.22	> 33.3 µM
C/C(=N/Nc1ccc([N+](=O)[O-])cc1[N+](=O)[O-])C(CC(C(=O)Nc1ccccc1C)/C(C)=N\Nc1ccc([N+](=O)[O-])cc1[N+](=O)[O-])C(=O)Nc1ccccc1C (configuration not stated)	–	34	–	> 100 µM	–	38	–	30.6	–	–	–	–	–	25.8	–	36.8	–	42.3	–	> 69.3 µM
O=C1c2ccccc2C(=O)c2c1ccc1c3ccccc3n(Cc3ccccc3)c21	–	–	–	> 100 µM	–	> 100	–	> 100	–	–	–	–	–	> 100	–	> 100	–	> 100	–	> 100 µM
COc1ccc(S(=O)(=O)NCCNc2nccc(-c3c(-c4ccccc4)nc4sccn34)n2)cc1	1.16	8.9	–	–	7.11	> 100	15.3	> 100	0.873	> 100	1.64	> 100	13.7	> 100	–	–	5.03	> 100	–	–
O=C1/C(=C/c2ccccc2)CN(C(=O)OCC(Cl)(Cl)Cl)C/C1=C\c1ccccc1	–	6.29	–	13.5 µM	–	–	–	–	–	–	–	–	–	14	–	2.95	–	2.3	–	0.649 µM
C#Cc1ccc(-n2c(/C=C/c3cc(OC)c(OC)c(OC)c3)nc3ncccc3c2=O)cc1	2.63	9.84	4.9	> 100 µM	–	–	13.3	> 100	3.17	> 100	3.96	> 100	4.57	37.7	1.78	4.4	3.29	49.6	3.6	> 100 µM
CC[C@@]1(O)C(=O)OCc2c1cc1n(c2=O)Cc2cc3c(NC(C)=O)c(O)ccc3nc2-1	5.9	22.5	0.0542	1.07 µM	81.4	> 100	0.214	0.631	–	–	–	–	0.388	1.96	2.08	8.97	1.94	> 100	4.58	56.8 µM
CC(=O)Nc1ccc(-n2cnc3cc(-c4ccc(OCCN5CCCCC5)cc4)ccc32)cc1	–	–	6.57	23.9 µM	7.88	28	5.08	11.6	4.16	13.6	3.91	9.83	1.64	6.47	5.22	9.72	0.973	2.79	5.16	12.7 µM
CCN1CC2(C)CC[C@@H](OC)C34[C@@H]2[C@H](OC(C)=O)C2(OCO[C@@]25C[C@H](OC)C2C[C@]3(O)[C@@H]5[C@H]2O)[C@H]14	–	–	–	–	–	> 100	–	> 100	–	–	–	–	–	> 100	–	–	–	> 100	–	–
CCOc1cccnc1/C=N/NC(N)=S	3.95	> 100	3	12 µM	–	–	3.71	48.5	3.25	> 100	3.9	> 100	2.8	9.59	3.4	> 100	4.46	> 100	3.82	> 100 µM
Cc1cccc(CC(C)(C)C)c1NC(=O)C(=O)C(C(=O)c1ccc2ccccc2c1)C1OC(=O)c2ccccc21 (configuration not stated)	–	30.9	–	–	–	82.1	–	43.2	–	–	–	–	–	11.8	–	26.7	–	38.7	–	> 100 µM
O=C(OCc1nc2ccc(Br)cc2c(=O)n1-c1ccccc1)c1ccccc1O	–	> 100	–	> 100 µM	–	> 100	–	> 100	–	–	–	–	–	> 100	–	68.7	–	> 100	–	> 100 µM
O=c1[nH]c(-c2ccccn2)nc2sc3c(c12)CCCCCC3	1.31	> 100	0.905	> 100 µM	–	–	6.24	> 100	2.47	> 100	4.05	> 100	7.84	> 100	2.92	> 100	4.85	> 100	3.63	> 100 µM
CCC1NCC(=O)c2c1[nH]c1ccccc21 (configuration not stated)	–	> 100	–	> 100 µM	–	> 100	–	–	–	–	–	–	–	> 100	–	> 100	–	> 100	–	> 100 µM
COC(=O)C(=O)C(C(=O)C(=O)Nc1ccccc1C(N)=O)c1nc2ccc(C(=O)c3ccccc3)cc2[nH]c1=O (configuration not stated)	–	> 100	–	> 100 µM	–	> 100	–	–	–	–	–	–	–	> 100	–	> 100	–	> 100	–	> 100 µM
COc1ccccc1NC(=O)C(=O)C1C(=O)Nc2ccccc2S1=O (configuration not stated)	–	> 100	–	> 100 µM	–	> 100	–	> 100	–	–	–	–	–	> 100	–	> 100	–	> 100	–	–
O=C1/C(=C/c2ccccc2)CN(C(=O)Oc2ccc([N+](=O)[O-])cc2)C/C1=C\c1ccccc1	–	–	1.72	6.5 µM and 8.22 µM	–	–	–	–	–	–	–	–	–	–	4.12	5.38	1.27	2.47	0.0844	0.428 µM and 0.424 µM
